Data taken from patent publication US9133207B2, “Tetrandrine derivatives with substituted 5-carbon, preparation method and use thereof” (Hangzhou Bensheng Pharmaceutical Co., Ltd., priority 2011, dated 2015).
Values after ≈ are worked out from the molar mass of the structure shown.

Experiments:
[1] = test system: Kasumi-1 (acute myeloid leukemia M2 type, AML-M2); assay: Leukemia cell growth inhibition, MTT, 72 h (Example 5); assay type: cell-based, human; settings: Homo sapiens, Kasumi 1
How it was run: (§1)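 6000 cells per well were seeded in RPMI 1640 with 10% FBS, exposed to graded concentrations of 5-substituted tetrandrine derivatives, and held 72 hours at 37° C, 5% CO2. Viable cell concentration was then measured by MTT.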

[2] = test system: Jurkat (acute lymphoblastic leukemia, ALL); assay: as above; assay type: cell-based, human; settings: Homo sapiens, Jurkat; 72 h, MTT
How it was run: as §1

[3] = test system: H9 (acute lymphoblastic leukemia, ALL); assay: as above; assay type: cell-based, human; settings: Homo sapiens; 72 h, MTT
How it was run: as §1

[4] = test system: K562/adr (drug-resistant, chronic myeloid leukemia, CML); assay: as above; assay type: cell-based, human; settings: Homo sapiens, K562/Adr; 72 h, MTT
How it was run: as §1

[5] = test system: NB4 (acute promyelocytic leukemia, AML); assay: as above; assay type: cell-based, human; settings: Homo sapiens; 72 h, MTT
How it was run: as §1

[6] = test system: RPMI8226 (multiple myeloma); assay: Multiple myeloma cell growth inhibition, MTT, 72 h (Example 6); assay type: cell-based, human; settings: Homo sapiens, RPMI-8226; 72 h, MTT, RPMI8226
How it was run: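 RPMI8226 cells (6000 per well) in RPMI 1640 with 10% FBS were exposed to a range of tetrandrine derivative concentrations for 72 h at 37 °C under 5% CO2. Viable cell concentration was then measured by MTT.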

[7] = test system: MG63 (osteosarcoma); assay: Solid tumor cell growth inhibition, MTT, 72 h (Example 7); assay type: cell-based, human; settings: Homo sapiens; 72 h, MTT, MG-63
How it was run: (§2)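 A 72 h MTT assay: cells (4000/well, 24 h pre-culture in DMEM high glucose with 10% FBS at 37 °C, 5% CO2) were treated with graded concentrations of derivatives, and viability was calculated as % of untreated control.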

[8] = test system: PC-3 (prostate cancer); assay: as above; assay type: cell-based, human; settings: Homo sapiens; 72 h, MTT, PC-3
How it was run: as §2

[9] = test system: CaES-17 (esophageal cancer cell); assay: as above; assay type: cell-based, human; settings: Homo sapiens, CaEs17; 72 h, MTT, CAES-17
How it was run: as §2

[10] = test system: PANC-1 (pancreatic cancer); assay: as above; assay type: cell-based, human; settings: Homo sapiens; 72 h, MTT, PANC-1
How it was run: as §2

[11] = test system: Hep-2 (laryngeal carcinoma); assay: as above; assay type: cell-based, human; settings: Homo sapiens; 72 h, MTT, Hep 2
How it was run: as §2

[12] = Experiment 8-1: body weight of nude mice, preliminary toxicity; assay type: in vivo, BALB/c nude mice; settings: for Weight (g) Final: 50 mg/kg intragastric, 3 times a day, 10 days, final body weight; for Weight (g) Final / Weight (g) Initial: M±SD; for Weight (g) Initial: nude mice body weight before administration
Description: (§3) BS-TE-403 and BS-TE-333 (the present invention), and tetrandrine TTD from Jiangxi Jinfurong Pharmaceutical Co., Ltd. All compounds are administered at the dosage of 50 mg/kg weight each time.
(§4) The experiments are divided into 4 groups: negative control group (solvent group), positive control group (lead compound TTD group), BS-TE-403 group and BS-TE-333 group.
(§5) The administrations are successive for 10 days.

[13] = test system: MGC 803 (human gastric cancer cell); assay: Solid tumor cell growth inhibition, MTT, 72 h (Example 7); assay type: cell-based; settings: Homo sapiens
How it was run: as §2

[14] = test system: Huh7 (human liver cancer cell); assay: as above; assay type: cell-based; settings: Homo sapiens; 72 h, MTT, Huh-7
How it was run: as §2

[15] = test system: U87 MG (malignant glioma cell); assay: as above; assay type: cell-based; settings: Homo sapiens, U-87 MG
How it was run: as §2

[16] = test system: Hela (human cervical cancer cell); assay: as above; assay type: cell-based; settings: Homo sapiens; 72 h, MTT, Hela
How it was run: as §2

[17] = test system: RKO (human colon adenocarcinoma cell); assay: as above; assay type: cell-based; settings: Homo sapiens; 72 h, MTT, RKO
How it was run: as §2

[18] = test system: A549 (human lung cancer); assay: as above; assay type: cell-based; settings: Homo sapiens; 72 h, MTT, A549
How it was run: as §2

[19] = test system: CNE (nasopharyngeal carcinoma cell); assay: as above; assay type: cell-based; settings: Homo sapiens
How it was run: as §2

[20] = test system: SK-OV-3 (ovarian cancer cell); assay: as above; assay type: cell-based; settings: Homo sapiens
How it was run: as §2

[21] = test system: Becap37 (human breast cancer cell); assay: as above; assay type: cell-based; settings: Homo sapiens; 72 h, MTT, Becap-37
How it was run: as §2

[22] = test system: human non-small cell lung cancer cell line A549 transplanted tumor; assay: Experiment 8-1: transplanted tumor of human lung cancer in nude mice; assay type: in vivo, BALB/c nude mice; settings: for Mass of tumor / Tumor Inhibition rate (%): 50 mg/kg intragastric, 3 times a day, 10 days; for Mass of tumor: Day 27, M±SD; for Tumor Inhibition rate (%): Day 27, control = zero
Description: (§6) Cell lines: human non-small cell lung cancer cell line A549, from China Center for Type Culture Collection (CCTCC);
as §3
Under sterile conditions, the above tumor cells in the logarithmic growth phase are collected and injected by subcutaneous injection in an amount of 5×10^6/0.2 ml/nude mice (cell viability>95%) into the right subaxillary of the nude mice, thus establishing a transplated tumor model of human non-small cell lung cancer in nude mice.
as §4, §5

[23] = test system: human non-small cell lung cancer cell line A549 transplanted tumor; assay: Experiment 8-2: transplanted tumor of human lung cancer in nude mice; assay type: in vivo, BALB/c nude mice; settings: 50 mg/kg intragastric, 3 times a day, 10 days, Day 29, M±SD
Text: as §6, §5

[24] = Experiment 8-2: body weight of nude mice, preliminary toxicity; settings: M±SD
Description: Animal: BALB/c nude mice, 8 weeks, female, purchased from Shanghai Laboratory Animal Center of Chinese Academy of Sciences, China.
The mice are administered from the third day after the inoculation. Each mouse is intragastrically administered in 0.4 ml each time and 3 times a day, at 8:00, 14:00 and 20:00, with 6-hour intervals. The administrations are successive for 10 days. The day before administration is deemed as Day 0 and the body weight and tumor size are determined every 5 days to produce a dynamic plot on body weight and tumor growth. On Day 29, the mice are dissected and the tumors are taken out and weighted. The tumor inhibition rate (%) is calculated after the effect of the medicament based on the tumor inhibition rate of the control group being zero.
The values determined are presented as mean±standard error (M±SD).

[25] = test system: human breast cancer multidrug resistant lines MCF-7/ADR; settings: 2.5 μmol/L tetrandrine; cited from earlier work
[26] = test system: drug-resistant lung cancer cell GLC-82/ADR; settings: while adriamycin is used, without tetrandrine; cited from earlier work

COc1ccc2cc1Oc1ccc(cc1)C[C@H]1c3cc(c(OC)cc3CCN1C)Oc1c(OC)c(OC)c(CN3CCN(C(C)C)CC3)c3c1[C@H](C2)N(C)CC3 [BS-TE-333]
IC50 [1]: 0.77 µg/mL (≈ 1.01 µM)
IC90 [1]: 3.29 µg/mL (≈ 4.31 µM)
IC50 [2]: 0.81 µg/mL (≈ 1.06 µM)
IC90 [2]: 4.18 µg/mL (≈ 5.48 µM)
IC50 [3]: 1.14 µg/mL (≈ 1.49 µM)
IC90 [3]: 1.84 µg/mL (≈ 2.41 µM)
IC50 [4]: 0.43 µg/mL (≈ 0.564 µM)
IC90 [4]: 1.91 µg/mL (≈ 2.5 µM)
IC50 [5]: 0.48 µg/mL (≈ 0.629 µM)
IC90 [5]: 1 µg/mL (≈ 1.31 µM)
IC50 [6]: 0.06 µg/mL (≈ 0.0786 µM)
IC90 [6]: 2.34 µg/mL (≈ 3.07 µM)
IC50 [7]: 0.7 µg/mL (≈ 0.917 µM)
IC90 [7]: 1.3 µg/mL (≈ 1.7 µM)
IC50 [8]: 1.85 µg/mL (≈ 2.42 µM)
IC90 [8]: 2.9 µg/mL (≈ 3.8 µM)
IC50 [9]: 2.35 µg/mL (≈ 3.08 µM)
IC90 [9]: 17.1 µg/mL (≈ 22.4 µM)
IC50 [10]: 1.69 µg/mL (≈ 2.21 µM)
IC90 [10]: 9.93 µg/mL (≈ 13 µM)
IC50 [11]: 1.72 µg/mL (≈ 2.25 µM)
IC90 [11]: 9.69 µg/mL (≈ 12.7 µM)
toxic or side effect under such a dosage ([12]; 50 mg/kg): has caused some toxic and side effect
weight loss as compared with the weight in the control group (FIG. 1) ([12]; 50 mg/kg): relatively obvious
Weight (g) Final [12]: 16.95 ± 2.30 g
Weight (g) Initial [12]: 21.3 ± 0.24 g
IC50 [13]: 0.84 µg/mL (≈ 1.1 µM)
IC90 [13]: 5.3 µg/mL (≈ 6.95 µM)
IC50 [14]: 1.64 µg/mL (≈ 2.15 µM)
IC90 [14]: 2.45 µg/mL (≈ 3.21 µM)
IC50 [15]: 0.5 µg/mL (≈ 0.655 µM)
IC90 [15]: 1.51 µg/mL (≈ 1.98 µM)
IC50 [16]: 1.69 µg/mL (≈ 2.21 µM)
IC90 [16]: 5 µg/mL (≈ 6.55 µM)
IC50 [17]: 0.54 µg/mL (≈ 0.708 µM)
IC90 [17]: 1.74 µg/mL (≈ 2.28 µM)
IC50 [18]: 1.5 µg/mL (≈ 1.97 µM)
IC90 [18]: 11 µg/mL (≈ 14.4 µM)
IC50 [19]: 2.6 µg/mL (≈ 3.41 µM)
IC90 [19]: 5.6 µg/mL (≈ 7.34 µM)
IC50 [20]: 3.04 µg/mL (≈ 3.98 µM)
IC90 [20]: > 16 µg/mL
IC50 [21]: 1 µg/mL (≈ 1.31 µM)
IC90 [21]: 4.5 µg/mL (≈ 5.9 µM)
effect on transplanted tumor of human lung cancer in nude mice (FIG. 2) ([22]; 50 mg/kg): exhibit inhibiting effects
Mass of tumor [22]: 639.25 ± 285.20 mg
Tumor Inhibition rate (%) [22]: 31.15%

COc1cc2ncnc(Nc3ccc(F)c(Cl)c3)c2cc1OCCCN1CCOCC1 [Jef, gefitinib, reference compound]
Mass of tumor [23]: 883 ± 273.32 mg
Weight (g) Final ([24]; 50 mg/kg intragastric, 3 times a day, 10 days, final body weight): 21.8 ± 0.99 g
Weight (g) Initial ([24]; nude mice body weight before administration): 22.1 ± 0.17 g

COc1ccc2cc1Oc1ccc(cc1)C[C@H]1c3cc(c(OC)cc3CCN1C)Oc1c(OC)c(OC)cc3c1[C@H](C2)N(C)CC3 [TTD, 6,6′,7,12-tetramethoxy-2,2′dimethylberbamine, reference compound]
IC50 [1]: 1.69 µg/mL (≈ 2.71 µM)
IC90 [1]: 8.24 µg/mL (≈ 13.2 µM)
IC50 [2]: 2.09 µg/mL (≈ 3.36 µM)
IC90 [2]: 9.85 µg/mL (≈ 15.8 µM)
IC50 [3]: 2.69 µg/mL (≈ 4.32 µM)
IC90 [3]: 6.4 µg/mL (≈ 10.3 µM)
IC50 [4]: 0.44 µg/mL (≈ 0.707 µM)
IC90 [4]: 2.14 µg/mL (≈ 3.44 µM)
IC50 [5]: 1.6 µg/mL (≈ 2.57 µM)
IC90 [5]: 4.1 µg/mL (≈ 6.58 µM)
IC50 [6]: 0.37 µg/mL (≈ 0.594 µM)
IC90 [6]: 2.54 µg/mL (≈ 4.08 µM)
increase of adriamycin cytotoxicity on drug-resistant tumors [25]: 20.4 times
IC50 [7]: 1.9 µg/mL (≈ 3.05 µM)
IC90 [7]: 3.7 µg/mL (≈ 5.94 µM)
IC50 [8]: 6.01 µg/mL (≈ 9.65 µM)
IC90 [8]: 10.8 µg/mL (≈ 17.3 µM)
IC50 [9]: 8.34 µg/mL (≈ 13.4 µM)
IC90 [9]: > 16 µg/mL
IC50 [10]: 3.16 µg/mL (≈ 5.07 µM)
IC90 [10]: 7.02 µg/mL (≈ 11.3 µM)
IC50 [11]: 3.88 µg/mL (≈ 6.23 µM)
IC90 [11]: 11.9 µg/mL (≈ 19 µM)
Weight (g) Final [12]: 19.10 ± 2.02 g
Weight (g) Initial [12]: 22.40 ± 0.26 g
IC50 [13]: 1.97 µg/mL (≈ 3.16 µM)
IC90 [13]: 7.41 µg/mL (≈ 11.9 µM)
IC50 [14]: 5.05 µg/mL (≈ 8.11 µM)
IC90 [14]: 7.81 µg/mL (≈ 12.5 µM)
IC50 [15]: 0.66 µg/mL (≈ 1.06 µM)
IC90 [15]: 3.58 µg/mL (≈ 5.75 µM)
IC50 [16]: 4.05 µg/mL (≈ 6.5 µM)
IC90 [16]: 9.24 µg/mL (≈ 14.8 µM)
IC50 [17]: 2.72 µg/mL (≈ 4.37 µM)
IC90 [17]: 6.3 µg/mL (≈ 10.1 µM)
IC50 [18]: 2.9 µg/mL (≈ 4.66 µM)
IC90 [18]: 12.5 µg/mL (≈ 20.1 µM)
IC50 [19]: 3.3 µg/mL (≈ 5.3 µM)
IC90 [19]: 6.2 µg/mL (≈ 9.96 µM)
IC50 [20]: 9.04 µg/mL (≈ 14.5 µM)
IC90 [20]: > 16 µg/mL
IC50 [21]: 6.9 µg/mL (≈ 11.1 µM)
IC90 [21]: 15 µg/mL (≈ 24.1 µM)
Mass of tumor [22]: 799.00 ± 349.09 mg
Tumor Inhibition rate (%) [22]: 13.95%

COc1cccc2c1C(=O)c1c(O)c3c(c(O)c1C2=O)C[C@@](O)(C(=O)CO)C[C@@H]3O[C@H]1C[C@H](N)[C@H](O)[C@H](C)O1 [adriamycin]
drug-resistance index [26]: 5.43
